These results are taken from patent publication US20240418704A1, “EPIGENETIC TARGETS IN CLONAL HEMATOPOIESIS” (Memorial Sloan-Kettering Cancer Center, priority 2021, published 2024).

In the test the test system is HSPCs co-cultured with BMECs. The test can be described thus: BMEC co-culture system: cell-type specific differentiation readout in response to small molecules. In kind it is cell-based, murine. Particulars: Cd11b+Gr1+, Lin neg, GMP, MEP and LSK cells after contacting the cells with the agent, FIGS. 4A-4C. The source says:
FIGS. 4A-4C. BMEC co-culture system can be used to readout cell-type specific dependencies in response to small molecules and single guide RNAs (sgRNAs).
A platform was adopted whereby primary murine HSPCs are co-cultured with bone marrow endothelial cells that allow for maintenance and expansion of HSPCs (FIG. 1). […] Thus, the adopted HSPC-BMEC co-culture platform is a robust system to study genetically defined murine HSPCs with CH genomic modifications.

For `Cc1nc(Nc2ncc(C(=O)Nc3c(C)cccc3Cl)s2)cc(N2CCN(CCO)CC2)n1` [Dasatanib], the “effect on differentiation (percentage of heme-expression and cell differentiation)” value is “inhibits differentiation”.
